Test results from patent US7815905B2, “Methods of increasing insulin sensitivity or decreasing insulin secretion by administering corticotropin releasing factor receptor-2 inhibitors” (Research Development Foundation, priority 2006, dated 2010).
“Also recorded” adds a separate entry of the source. Ends that are not written are not given here.

Key:
[1] = tested on: insulin signaling in C2C12 myotubes; assay: Phosphorylation studies of insulin signaling in C2C12 myotubes; type: cell-based; conditions: pretreatment with the PKA inhibitor
Procedure: FIG. 3a-l: Urocortin 2 effects on muscle glucose uptake are mediated by inhibition of insulin signaling. (a-f). Ucn 2 inhibits the insulin-induced Akt and ERK1/2 phosphorylation but not the insulin receptor phosphorylation. Differentiated C2C12 myotubes were pre-incubated with or without Ucn 2 peptide (0.1, 1 or 10 nM) for 1 hour prior to insulin treatment (10 nM, 5 min). Cell lystates were resolved using 4-12% gradient polyacrylamide gels. Gels were electrophorectically transferred to membranes and probed with antibodies specific for the phospho proteins pAkt (Ser 473), pERK1/2 or pIR (Tyr1146). Stimulation of Akt, ERK or insulin receptor (IR) activation was calculated by fold activation of the phosphorylated form normalized to total and compared with the untreated controls (a, d and f, graphs). […] (g-j) Ucn 2 treatment increases the phosphorylation of serine residue 307 and not the tyrosin phosphorylation of IRS-1. Myotube cells, treated with or without PKA inhibitor (H-89), were incubated with insulin and different concentrations of Ucn 2. IRS-1 immunoprecipitated proteins were electrophoresed as before and the immunoblots were probed for phosphorylated tyrosin (g), phosphorylated serine 307 IRS-1 (i) and total IRS-1 (g, i). […] (k) The effect of Ucn 2 on [^3H]2-deoxy-D-glucose uptake in differentiated C2C12 myotubes. Cells were incubated for 2 hours in low glucose, serum free medium and treated with Ucn 2 (0.1, 1 or 10 nM) or without (control) for 30 min prior to insulin administration (10 nM). Glucose uptake was measured 5 min following exposure to [^3H]2-deoxy-D-glucose. Non-specific uptake was measured by incubating muscle tissue with cytochalasin B, which binds to the glucose uptake transporter (GLUT) and inhibits glucose transport into the cell. Specific uptake was calculated by subtracting non specific from total glucose. (l) Schematic representation of the putative cellular mechanisms mediating the effect of Ucn 2 and CRFR2 on the insulin signaling and glucose uptake in skeletal muscle cells. * indicates p<0.05 vs. no treatment. # indicates p<0.05 vs. insulin treatment (b, d, f) or p<0.05 vs. insulin treatment and Ucn 2 (i).
Differentiated C2C12 myotubes were pre-incubated with or without Ucn 2 peptide (0.1, 1 or 10 nM) for 1 hour prior to insulin treatment (10 nM, 5 min). Cells were harvested immediately in 100 μl of sample treatment buffer [STB, 50 mM Tris (pH 6.8), 100 mM dithiothreitol, 2% (wt/vol) sodium dodecyl sulfate, 0.1% (wt/vol) bromphenol blue, and 10% (wt/vol) glycerol]. The samples were boiled for 5 min, proteins were electrophoresed on 4-12% sodium dodecyl sulfate-polyacrylamide gradient gel (Invitrogen Life Technologies), subsequently transferred onto nitrocellulose membranes, and probed with antibodies specific for phosphorylated Akt (Ser 473, Cell Signaling Technology, Inc., Beverly, Mass.), phosphorylated ERK1/2-p42, 44 (Santa Cruz Biotechnology, Inc., Santa Cruz, Calif.), phosphorylated insulin receptor (Tyr 1146, Cell Signaling Technology, Inc.), or phosphorylated IRS1 (Ser 307, Upstate Cell Signaling Solutions, Lake placid, NY). The membranes were washed with phosphate buffer saline containing 0.05% (vol/vol) Tween 20 and incubated with horseradish peroxidase-conjugated anti mouse or rabbit IgG raised in sheep (Amersham Biotech Pharmacia). Immunoreactive proteins were visualized using Super Signal West Pico Chemiluminescent substrate (Pierce, Rockford, Ill.). The relative protein levels were determined using densitometry (Image quant 1.2) by probing the membranes with antibodies directed against total proteins.

[2] = tested on: MIN6 cells; assay: Ucn 3 secretion from MIN6 cells (Ucn 3 RIA); type: cell-based, mouse; conditions: for Ucn 3 secretion in the presence of 2.8 mM glucose / Ucn 3 release in the presence of 10 mM glucose: 2 h at 37° C.
Text: FIG. 8a-e: Elevation of pancreatic Ucn 3 expression in diabetic rodent models and stimulation of Ucn 3 release from β cells by glucose. (a) Representative agarose gel electrophoresis showing Ucn 3 and S-16 (control) PCR products. (b) Summary of Ucn 3 expression in ob/ob obese mice and the wildtype (WT) littermates. *: p<0.05 vs WT. (c) Ucn 3 mRNA levels in the pancreas of high fat fed rats (HF) and chow fed controls (Ctrl). *: p<0.05 vs Ctrl. (d) Ucn 3 secretion from MIN6 cells in response to various glucose concentrations. (e) Ucn 3 release from MIN6 cells, in response to glucose and/or insulin secretagogues.
Ucn 3 secretion from P cells was studied using a mouse clonal P cell line, MIN6, as a model. For these studies MIN6 cells (Miyazaki et al., 1990) were cultured in DMEM supplemented with 10% fetal bovine serum (FBS), and 114 μm β-mercaptoethanol. To assess Ucn 3 secretion, the cells were seeded in 6-well plates and allowed to recover for 48 hrs. The cells were then washed twice with HEPES-balanced Krebs-Ringer bicarbonate buffer (HKRB) containing 5 mM glucose and 0.2% BSA and were incubated in HKRB with various testing reagents for 2 h at 37° C. The incubation buffer was collected and vacuum-dried for Ucn 3 RIA. Exendin-4 and diazoxide and carbachol were purchased from Phoenix Pharmaceuticals (Belmont, Calif.), and Sigma (St. Louis, Mo.), respectively. […] The effect of glucose on Ucn 3 secretion plateaued at 16.8 mM.

[3] = tested on: isolated rat islets; assay: Insulin secretion from isolated rat islets; type: cell-based; conditions: 10 nM in the presence of 8.4 mM glucose
Procedure: FIG. 4a-b: The effect of CRFR2 antagonist on insulin secretion in isolated rat islets. (a) The effect of astressin2B (Ast2-B) on insulin secretion in response to glucose in isolated rat islets. […] The asterisk indicates a statistically significant difference between results from the control versus Ast2-B. (b) Isolated rat isles were pre-treated with anti-Ucn 3 IgG or control IgG followed by addition of indicated concentration of glucose. Y-axis indicates insulin secretion from the treated islets. The double asterisks indicate a statistically significant difference between the indicated treatments. […]
To assess the effect of CRFR2 antagonism on islet cell function secretion of insulin from isolated rat islets was studied. […] Thus, activation of CRFR2 by endogenous ligands is involved in insulin secretion induced by high levels of glucose.
In order to determine the role of Ucn 3 in glucose induced insulin secretion, isolated rat islets were pretreated with an anti-Ucn 3 IgG prior to glucose treatment.

[4] = tested on: C57/B6 mice fed with high fat diet; assay: Ucn 3 treatment of high fat diet fed mice; type: in vivo, mouse; conditions: high fat diet 16 weeks; 30 μg/kg i.p. for 6 days; vs vehicle
Procedure: FIG. 6: The in vivo effect of Ucn 3 on insulin levels and blood glucose in a mouse model of type 2 diabetes. Wild-type mice were fed a high fat diet for 16 weeks to induce hyperglycemia. The mice were then injected for six days with vehicle alone or vehicle plus 30 μg/Kg of Ucn 3. Following treatment serum glucose (left panel) and serum insulin levels (right panel were determined.
To directly assess the in vivo activity of Ucn 3 in this model system C57/B6 mice were fed with high fat diet (45% Kcal) for 16 weeks. The mice were then injected i.p. with either vehicle or mouse Ucn 3 (30 μg/kg) for 6 days. […] These studies confirm the role of Ucn 3 in mediating increased insulin response to high blood sugar.

With `O=S(=O)(NCCNC/C=C/c1ccc(Br)cc1)c1cccc2cnccc12` [H-89] the “phosphorylation of IRS-1 on S307 by Ucn 2” value [1] was “completely blocked”.

In the case of `C[N+](C)(C)CCOC(N)=O` [carbachol], the “Ucn 3 secretion in the presence of 2.8 mM glucose” value [2] is reported as “minimal or moderate” and the “Ucn 3 release in the presence of 10 mM glucose” value [2] is reported as “significantly stimulated”.

`CC1=NS(=O)(=O)c2cc(Cl)ccc2N1` [diazoxide] was tested, and the “glucose-induced Ucn 3 secretion” value ([2]; pretreatment, 100 μM) was “effectively blocked”.

Exendin-4: a long acting GLP-1 analogue was tested, and the “insulin release from isolated islets” value [3] was “significantly stimulated; also recorded: stimulated insulin release”, the “Ucn 3 secretion in the presence of 2.8 mM glucose” value [2] was “minimal or moderate” and the “Ucn 3 release in the presence of 10 mM glucose” value [2] was “significantly stimulated”.

With “Ucn 3: Urocortin 3, CRF family member acting as CRFR2 agonist; mouse Ucn 3 (SEQ ID NO:3) (FTLSLDVPTNIMNILFNIDKAKNLRAKAAANAQLMAQI; ends and bridges not checked; listed as Mus musculus)” the glucose levels [4] was “significantly lower glucose levels” and the insulin levels [4] was “higher insulin levels compared to the control, though the difference was not statistically significant”.
